What all share (format): cell-based
What all share (conditions): MM1S cells, 0.3, 3 and 30 μM, 6 hours

Assay [1] deals with T1, IKZF1 (Homo sapiens, UniProt Q13422+Q96SW2).
T1 construct: MM1S cells were purchased from ATCC (cat. Number CRL-2974); host or cells: MM1S cells
The assay can be described thus: Selectivity determination by Western blot assay in MM1S cells: IKZF1. Set-up: key: A represents no degradation observed at 30 μM; B represents trace degradation at 30 μM (below 20%); C represents weak degradation at 30 μM (below 50%); D represents degradation at 30 μM (>90%); E represents degradation at 3 μM (>90%); F represents degradation at 0.3 μM (>90%). The method, then:
(§1) MM1S cells were purchased from ATCC (cat. Number CRL-2974), sub-cultured in […] RPMI 1640 with 10% FBS, supplemented with Ix P/S and incubated at 37° C., […]. Compounds were stored as 10 mM DMSO stock. For the assay, MM1S cells (3 million cells/well) were plated in 6-well plates and incubated over night. Cells were treated with respective compounds using a serial dilution: 0.3 μM, 3 μM and 30 μM as well as a vehicle only (DMSO) control for 6 hours. Media with suspension cells was subsequently transferred to 15 mL conical tubes, wells rinsed twice with ice-cold PBS and merged with cell suspension in respective 15 mL conical tube. Cells were spinned down, supernatant aspirated, pellets resuspended in ice-cold PBS and transferred to microtubes. Cells were spinned down, supernatant aspirated and pellets resuspended in 120 μL RIPA lysis buffer supplemented with protease and phosphatase inhibitors. Cell lysates were incubated on ice for 20 minutes followed by centrifugation at >20,000×g for 5 min. Supernatants were transferred to fresh microtubes and stored at −80° C. Total protein concentration was determined using a BCA assay with a BSA standard curve and concentration of all samples was adjusted to 1 mg/mL. […] Chemiluminescence signals were then detected using a LAS-4000 system with default settings and signals quantified using Image Studio Lite software (version 5.2). […]

Assay [2] deals with T2, IKZF3 (Homo sapiens, UniProt Q96SW2+Q9UKT9).
T2 construct: MM1S cells were purchased from ATCC (cat. Number CRL-2974); host or cells: MM1S cells
T2 sequence (Q9UKT9 whole entry): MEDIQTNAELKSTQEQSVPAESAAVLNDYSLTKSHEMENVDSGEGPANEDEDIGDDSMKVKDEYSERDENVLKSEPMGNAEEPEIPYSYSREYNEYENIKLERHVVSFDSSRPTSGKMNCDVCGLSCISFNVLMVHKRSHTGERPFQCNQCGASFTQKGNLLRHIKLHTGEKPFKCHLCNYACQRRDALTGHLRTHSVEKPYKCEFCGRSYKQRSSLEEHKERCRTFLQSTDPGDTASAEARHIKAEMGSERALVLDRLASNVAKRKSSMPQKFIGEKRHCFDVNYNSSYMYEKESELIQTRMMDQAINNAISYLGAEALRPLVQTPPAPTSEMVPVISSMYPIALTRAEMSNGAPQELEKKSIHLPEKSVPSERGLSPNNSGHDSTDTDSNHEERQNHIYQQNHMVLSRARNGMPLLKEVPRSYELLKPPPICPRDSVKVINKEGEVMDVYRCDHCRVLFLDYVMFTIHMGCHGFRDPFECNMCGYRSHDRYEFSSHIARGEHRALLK
T2 sequence (Q96SW2 whole entry): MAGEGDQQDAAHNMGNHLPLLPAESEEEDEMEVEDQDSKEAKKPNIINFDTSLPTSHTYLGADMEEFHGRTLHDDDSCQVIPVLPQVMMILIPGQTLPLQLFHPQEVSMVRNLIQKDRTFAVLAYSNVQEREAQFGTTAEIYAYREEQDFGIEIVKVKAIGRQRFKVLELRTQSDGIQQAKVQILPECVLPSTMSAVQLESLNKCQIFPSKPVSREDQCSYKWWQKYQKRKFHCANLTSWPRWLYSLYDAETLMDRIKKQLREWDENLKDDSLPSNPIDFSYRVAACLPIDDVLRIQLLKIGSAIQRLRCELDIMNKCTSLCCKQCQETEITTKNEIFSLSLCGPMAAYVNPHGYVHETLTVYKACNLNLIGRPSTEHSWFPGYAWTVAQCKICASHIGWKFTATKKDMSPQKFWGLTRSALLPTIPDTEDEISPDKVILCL
T2 sequence (Q16531 whole entry partner): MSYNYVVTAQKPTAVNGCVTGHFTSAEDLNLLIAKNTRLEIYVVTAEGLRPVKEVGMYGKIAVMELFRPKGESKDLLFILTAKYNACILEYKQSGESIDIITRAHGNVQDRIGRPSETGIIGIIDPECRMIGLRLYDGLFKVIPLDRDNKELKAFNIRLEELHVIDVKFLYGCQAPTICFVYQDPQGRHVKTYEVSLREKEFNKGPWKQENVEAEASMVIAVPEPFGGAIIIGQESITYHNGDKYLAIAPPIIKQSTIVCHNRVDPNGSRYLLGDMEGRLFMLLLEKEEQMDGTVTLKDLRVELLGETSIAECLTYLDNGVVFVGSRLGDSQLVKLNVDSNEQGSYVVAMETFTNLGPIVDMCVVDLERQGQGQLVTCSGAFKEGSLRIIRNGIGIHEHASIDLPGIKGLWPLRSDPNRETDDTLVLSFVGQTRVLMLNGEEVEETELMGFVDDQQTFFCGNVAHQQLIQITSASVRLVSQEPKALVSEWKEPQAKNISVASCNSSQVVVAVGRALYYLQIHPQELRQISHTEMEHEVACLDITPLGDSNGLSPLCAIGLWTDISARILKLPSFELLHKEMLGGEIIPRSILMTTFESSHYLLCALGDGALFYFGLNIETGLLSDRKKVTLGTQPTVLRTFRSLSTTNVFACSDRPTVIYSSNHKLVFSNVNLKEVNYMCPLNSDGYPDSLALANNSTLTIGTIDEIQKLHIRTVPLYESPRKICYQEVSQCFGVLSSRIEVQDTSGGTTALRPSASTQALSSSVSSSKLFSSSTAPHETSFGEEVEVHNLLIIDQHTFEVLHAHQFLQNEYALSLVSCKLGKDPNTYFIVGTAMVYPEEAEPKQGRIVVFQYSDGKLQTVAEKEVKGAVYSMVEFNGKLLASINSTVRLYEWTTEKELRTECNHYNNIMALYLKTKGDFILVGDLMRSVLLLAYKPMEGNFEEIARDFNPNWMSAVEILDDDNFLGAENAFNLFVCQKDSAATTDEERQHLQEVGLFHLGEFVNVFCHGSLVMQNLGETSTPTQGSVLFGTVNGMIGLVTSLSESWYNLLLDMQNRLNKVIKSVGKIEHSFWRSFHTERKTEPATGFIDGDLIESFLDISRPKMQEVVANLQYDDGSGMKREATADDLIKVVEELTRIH
Put plainly: Selectivity determination by Western blot assay in MM1S cells: IKZF3. Set-up: key: A represents no degradation observed at 30 μM; B represents trace degradation at 30 μM (below 20%); C represents weak degradation at 30 μM (below 50%); D represents degradation at 30 μM (>90%); E represents degradation at 3 μM (>90%); F represents degradation at 0.3 μM (>90%). The method, then: as §1
For orientation: Immunoblotting shows a protein as a band on a membrane.

In assay [3] the target is T3, CK1alpha (Homo sapiens, UniProt P48729+Q96SW2).
T3 construct: MM1S cells were purchased from ATCC (cat. Number CRL-2974); host or cells: MM1S cells
T3 sequence (P48729 whole entry): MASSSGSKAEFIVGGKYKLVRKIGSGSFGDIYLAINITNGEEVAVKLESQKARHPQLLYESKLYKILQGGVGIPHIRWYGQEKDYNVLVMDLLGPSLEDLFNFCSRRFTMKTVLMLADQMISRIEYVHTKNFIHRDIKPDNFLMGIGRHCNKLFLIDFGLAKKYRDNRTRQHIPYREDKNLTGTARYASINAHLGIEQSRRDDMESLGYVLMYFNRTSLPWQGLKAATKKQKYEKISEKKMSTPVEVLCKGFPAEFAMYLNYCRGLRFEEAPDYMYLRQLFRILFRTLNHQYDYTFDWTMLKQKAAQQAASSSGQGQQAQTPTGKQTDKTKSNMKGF
T3 sequence (Q96SW2 whole entry): as the sequence (Q96SW2 whole entry) above
T3 sequence (Q16531 whole entry partner): as the sequence (Q16531 whole entry partner) above
The assay can be described thus: Selectivity determination by Western blot assay in MM1S cells: CK1alpha. As for the experimental part: as §1

Assay [4] addresses T4, ZFP91 (Homo sapiens, UniProt Q96JP5+Q96SW2).
T4 construct: MM1S cells were purchased from ATCC (cat. Number CRL-2974); host or cells: MM1S cells
Put plainly: Selectivity determination by Western blot assay in MM1S cells: ZFP91. The method, then: as §1

Assay [5] has as its target GSPT1 (Homo sapiens, UniProt P15170+Q96SW2). Put plainly: Selectivity determination by Western blot assay in MM1S cells: GSPT1. Set-up: MM1S cells were purchased from ATCC (cat. Number CRL-2974); host or cells: MM1S cells. As for the experimental part: as §1

The source of these data is US20240051937A1, “ISOINDOLINONE AMIDE COMPOUNDS USEFUL TO TREAT DISEASES ASSOCIATED WITH GSPT1” (Monte Rosa Therapeutics, Inc., priority 2021, published 2024).

T4 sequence (Q96JP5 2-570 limits assumed): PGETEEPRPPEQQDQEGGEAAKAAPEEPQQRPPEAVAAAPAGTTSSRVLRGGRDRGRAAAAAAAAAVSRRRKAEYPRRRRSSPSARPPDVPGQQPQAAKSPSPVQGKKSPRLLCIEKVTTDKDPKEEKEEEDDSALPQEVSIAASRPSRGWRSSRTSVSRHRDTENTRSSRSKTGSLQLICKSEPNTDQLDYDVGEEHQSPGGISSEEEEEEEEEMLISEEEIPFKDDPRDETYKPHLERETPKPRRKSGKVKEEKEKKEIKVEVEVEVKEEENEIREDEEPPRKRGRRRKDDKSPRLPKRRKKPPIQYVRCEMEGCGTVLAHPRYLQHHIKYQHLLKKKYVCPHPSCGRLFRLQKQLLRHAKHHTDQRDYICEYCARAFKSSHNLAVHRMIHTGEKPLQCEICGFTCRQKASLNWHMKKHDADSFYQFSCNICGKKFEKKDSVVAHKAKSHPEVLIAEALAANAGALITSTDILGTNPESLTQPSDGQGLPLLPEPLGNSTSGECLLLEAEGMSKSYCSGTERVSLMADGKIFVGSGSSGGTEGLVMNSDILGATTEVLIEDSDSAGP
T4 sequence (Q96SW2 whole entry): as the sequence (Q96SW2 whole entry) above
T4 sequence (Q16531 whole entry partner): as the sequence (Q16531 whole entry partner) above
GSPT1, sequence (P15170 whole entry): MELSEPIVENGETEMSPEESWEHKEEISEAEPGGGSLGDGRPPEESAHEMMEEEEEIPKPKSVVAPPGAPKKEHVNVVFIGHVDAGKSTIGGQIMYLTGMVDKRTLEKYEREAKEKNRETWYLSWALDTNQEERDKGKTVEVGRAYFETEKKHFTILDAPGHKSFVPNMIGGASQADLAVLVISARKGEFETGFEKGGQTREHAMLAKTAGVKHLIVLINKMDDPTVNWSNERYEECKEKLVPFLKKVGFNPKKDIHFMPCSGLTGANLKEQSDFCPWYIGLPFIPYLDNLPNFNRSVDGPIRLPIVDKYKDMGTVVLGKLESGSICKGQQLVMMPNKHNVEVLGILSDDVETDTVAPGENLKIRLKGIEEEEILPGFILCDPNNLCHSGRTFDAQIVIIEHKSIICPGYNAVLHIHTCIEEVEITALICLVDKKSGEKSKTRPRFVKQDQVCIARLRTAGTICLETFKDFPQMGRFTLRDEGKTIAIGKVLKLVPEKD
GSPT1, sequence (Q96SW2 whole entry): as the sequence (Q96SW2 whole entry) above
GSPT1, sequence (Q16531 whole entry partner): as the sequence (Q16531 whole entry partner) above
T1 sequence (Q13422 whole entry): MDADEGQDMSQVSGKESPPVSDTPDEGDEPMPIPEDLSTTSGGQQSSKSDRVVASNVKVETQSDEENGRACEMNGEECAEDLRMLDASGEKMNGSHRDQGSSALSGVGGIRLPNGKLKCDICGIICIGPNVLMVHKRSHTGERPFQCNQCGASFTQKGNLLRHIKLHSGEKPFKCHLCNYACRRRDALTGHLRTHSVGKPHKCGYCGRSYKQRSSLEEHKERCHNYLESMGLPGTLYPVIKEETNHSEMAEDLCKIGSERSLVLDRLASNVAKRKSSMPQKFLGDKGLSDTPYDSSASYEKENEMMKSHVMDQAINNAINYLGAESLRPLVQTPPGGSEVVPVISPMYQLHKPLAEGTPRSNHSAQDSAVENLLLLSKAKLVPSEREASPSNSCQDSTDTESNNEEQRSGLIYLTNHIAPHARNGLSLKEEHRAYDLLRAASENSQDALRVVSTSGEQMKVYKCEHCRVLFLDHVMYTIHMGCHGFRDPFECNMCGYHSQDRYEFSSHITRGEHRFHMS
T1 sequence (Q96SW2 whole entry): as the sequence (Q96SW2 whole entry) above
T1 sequence (Q16531 whole entry partner): as the sequence (Q16531 whole entry partner) above

With `Cc1c(Cl)cc(NC(=O)CCc2ccc3c(c2)C(=O)N(C2CCC(=O)NC2=O)C3)cc1CN1CCOCC1` (stereo not shown) [Compound 2], the IKZF1 degradation code entry in assay [1] was “A”. In addition, the IKZF3 degradation code entry in assay [2] is listed as “C (C represents weak degradation at 30 μM (below 50%))”. The CK1alpha degradation code result in assay [3] is “C (C represents weak degradation at 30 μM (below 50%))”. In assay [4], the ZFP91 degradation code result was “C (C represents weak degradation at 30 μM (below 50%))”. In addition, the GSPT1 degradation code result in assay [5] is “F (F represents degradation at 0.3 μM (>90%))”.

As for `Cc1ccc(NC(=O)CCc2ccc3c(c2)C(=O)N(C2CCC(=O)NC2=O)C3)cc1Cl` (stereo not shown) [Compound 1], the IKZF1 degradation code result in assay [1] is “A”. Further, the IKZF3 degradation code entry in assay [2] was “A”. The CK1alpha degradation code entry in assay [3] was “B (B represents trace degradation at 30 μM (below 20%))”. In addition, the ZFP91 degradation code result in assay [4] was “B (B represents trace degradation at 30 μM (below 20%))”. In addition, the GSPT1 degradation code result in assay [5] is reported as “F (F represents degradation at 0.3 μM (>90%))”.
